US12479877B2, “Methods for purifying steviol glycosides and uses of the same” (PureCircle Sdn. Bhd., priority 2010, dated 2025)

Tests used:
[1] = tested on: semi-trained panel members; assay: Sensory comparison of Reb X and Reb A, iso-sweet samples at 8% sucrose equivalent; type: in vivo, human
Procedure: To compare the sensory attributes between Reb X and Reb A, iso-sweet samples having 8% sucrose equivalent sweetness were made with filtered water as shown in Table 8. An 8% sugar solution in water at room temperature was used as a control. An 8% sugar solution in the acidified solution was used as the control. The samples prepared with filtered water were evaluated by 34 semi-trained panel members at room temperature. The samples prepared with acidified water were evaluated by 23 semi-trained panel members at room temperature. Samples were given to the panel members sequentially and coded with triple digit numbers. The order of sample presentation was randomized to avoid order of presentation bias. Water and unsalted crackers were provided in order to cleanse the palate. The panel members were asked to rate different attributes including sweetness onset, total sweetness, rounded sweetness, bitterness, acidity, leafy note, licorice, astringency, mouthfeel, mouth coating, sweet lingering, and bitter lingering. Samples were rated on a scale of zero (0) to ten (10), with zero indicating immediate onset, no intensity, watery/low viscosity, or very sharp peak, and ten indicating very delayed onset, high intensity, thick/high viscosity, or very round peak. One-way single factor ANOVA was used to analyze sensory results, where α=0.05.

[2] = tested on: one experienced panelist; assay: Taste evaluation of Reb X against Reb A and Reb D, multi-sip and swallow taste method; type: in vivo, human
Procedure: The taste properties of a sample of Reb X were studied against Rebaudioside A (Reb A) and Rebaudioside D (Rb D) samples. Rb A was obtained from Cargill (lot #1040) and Reb-D was obtained from PureCircle (lot #11/3/08).
The samples were prepared at 500 ppm for sweetness evaluation by adding moisture compensated mass into a 100 mL sample of carbon-treated water and citric buffer solutions.
Citric buffer was prepared by mixing 1.171 g/L citric acid, 0.275 g/L sodium citrate and 0.185 g/L sodium benzoate with carbon-treated water, with a final pH of 3.22. The mixtures were moderately stirred at room temperature. The Reb X sample was then evaluated against the two control Reb A and Reb D samples in water and citric buffer at room temperature (RT) and at 4° C. in an ice bath by one experienced panelist for any tasting quality determinations using the controlled, multi-sip and swallow taste method shown below:
1. Take first sip (˜1.8 mL) of control and swallow. Wait for 15-25 sec, then take second sip of control and wait for 15-25 sec.
2. Take first sip of the experimental sample, wait for 15-25 sec, then take second sip. Compare to second sip of control.
3. Repeat steps #1 and #2 for the third and fourth sips of the control and experimental samples to confirm the initial finding.
The taste evaluation results of the Reb X samples against the control Reb A and Reb D samples at 500 ppm in citric buffer (CB) at 4° C. and RT are described in Table 4.

[3] = acidified water (250 ppm citric acid, pH 3.2), 23 panel members, FIG. 12

In the case of `C=C1C[C@@]23CCC4[C@](C)(C(=O)OC5OC(CO)C(O)C(OC6OC(CO)C(O)C(O)C6O)C5OC5OC(CO)C(O)C(O)C5O)CCC[C@@]4(C)[C@@H]2CCC1(OC1OC(CO)C(O)C(OC2OC(CO)C(O)C(O)C2O)C1OC1OC(CO)C(O)C(O)C1O)C3` (stereo partly drawn) [Reb X, (13-[2-O-β-D-glucopyranosyl-3-O-β-D-glucopyranosyl-β-D-glucopyranosyl)oxy] ent kaur-16-en-19-oic acid-[2-O-β-D-glucopyranosyl-3-O-β-D-glycopyranosyl) ester], the “Perceived sweetness compared to Reb A” value [1, 3] is reported as “higher sweetness of Reb X over Reb A is significant”, the “Sweetness onset, non-sweet taste and bitterness lingering compared to Reb A” value [1, 3] is reported as “faster sweetness onset, reduced non-sweet taste (bitterness, sour, astringency) and bitterness lingering” and the “Bitterness, astringency and bitter lingering compared to Reb A” value ([1]; filtered water, room temperature, 34 panel members, FIG. 11) is reported as “reduced perception of bitterness, astringency and bitter lingering compared to Reb A”. The “Taste quality at room temperature versus 4° C.” value ([2]; 500 ppm in citrate buffer) was “similar”, the “Taste quality compared with Reb A and Reb D” value ([2]; 500 ppm in citrate buffer) was “much better than Reb A or Reb D” and the “Sweet temporal profile and sweetness linger” value ([2]; 500 ppm in citrate buffer, compared with Reb A) was “fatty-like or broader sweet temporal profile and less sweetness linger than that of Reb A”. For the same compound, the “Taste Properties” value ([2]; 500 ppm in citric buffer (pH 3.22), room temperature) was “Clean sweet taste. Broad and full sweetness profile. Moderate” and the “Astringency, sweetness intense (depth) and bitterness notes” value ([2]; 500 ppm, citrate buffer system, compared with Reb A) was “did not have the astringency or sweetness intense (depth) and bitterness notes compared to that of the Reb A”.
